Test results from ChEMBL document CHEMBL1909046, “DrugMatrix in vitro pharmacology data”.

Assays:
[1] = target: Voltage-gated inwardly rectifying potassium channel KCNH2 (Homo sapiens, UniProt Q12809); settings: hek293; also: in other assays of this panel Not Active means under 50% inhibition at 10 µM
[2] = DRUGMATRIX: Tumor Necrosis Factor (TNF), Non-Selective radioligand binding (ligand: [125I] TNF-alpha); format: cell membranes, Membrane; settings: u-937; Not Active = under 50% inhibition at 10 µM
Adenosine receptor A3 = target: T1, Adenosine receptor A3 (Homo sapiens, UniProt P0DMS8); format: cell membranes, CHO-K1, Membrane; settings: cho-k1;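 also: radioligand binding assay with AB-MECA serving as the labeled ligand; in other assays of this panel Not Active means under 50% inhibition at 10 µM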
T1 sequence (P0DMS8 whole entry): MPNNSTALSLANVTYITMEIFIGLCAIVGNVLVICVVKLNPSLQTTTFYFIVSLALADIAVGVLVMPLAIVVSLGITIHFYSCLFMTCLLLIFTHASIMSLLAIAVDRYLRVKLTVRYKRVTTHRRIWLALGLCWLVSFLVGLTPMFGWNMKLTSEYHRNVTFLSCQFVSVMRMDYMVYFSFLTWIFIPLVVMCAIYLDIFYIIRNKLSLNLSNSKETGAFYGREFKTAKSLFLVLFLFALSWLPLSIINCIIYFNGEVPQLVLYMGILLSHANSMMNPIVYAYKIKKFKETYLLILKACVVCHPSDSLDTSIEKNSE

[3] = target: Receptor tyrosine-protein kinase erbB-2 (Homo sapiens, UniProt P04626); assay: biochemical; format: cell-based, Insect cells; settings: insect cells;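 also: inhibition of HER2 kinase enzyme activity, measured with Poly(Glu:Tyr) as the phosphorylation substrate; in other assays of this panel Not Active means under 50% inhibition at 10 µM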
[4] = DRUGMATRIX: ATPase, Na+/K+ enzyme inhibition (substrate: ATP); format: tissue-based, Sus scrofa, Heart; settings: Not Active = under 50% inhibition at 10 µM
[5] = DRUGMATRIX: beta-Lactamase enzyme inhibition (substrate: Nitrocefin); design: species or system Bacillus cereus; settings: Not Active = under 50% inhibition at 10 µM
[6] = target: T2, Vasoactive intestinal polypeptide receptor 1 (Homo sapiens, UniProt P32241); format: cell membranes, Membrane; settings: ht-29; also: in other assays of this panel Not Active means under 50% inhibition at 10 µM
T2 sequence (P32241 whole entry): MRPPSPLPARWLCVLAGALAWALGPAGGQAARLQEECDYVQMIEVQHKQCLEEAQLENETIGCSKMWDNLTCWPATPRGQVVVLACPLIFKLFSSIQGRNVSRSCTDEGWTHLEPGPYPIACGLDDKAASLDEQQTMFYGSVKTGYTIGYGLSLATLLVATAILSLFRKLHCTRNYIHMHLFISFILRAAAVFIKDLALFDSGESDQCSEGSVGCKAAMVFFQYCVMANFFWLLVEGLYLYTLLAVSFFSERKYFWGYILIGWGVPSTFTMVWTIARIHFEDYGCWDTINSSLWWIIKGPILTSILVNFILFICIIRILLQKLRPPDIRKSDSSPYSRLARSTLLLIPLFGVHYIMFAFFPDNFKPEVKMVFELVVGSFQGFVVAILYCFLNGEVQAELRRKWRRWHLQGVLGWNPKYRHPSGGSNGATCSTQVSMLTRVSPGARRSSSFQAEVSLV

[7] = DRUGMATRIX: Platelet-Derived Growth Factor (PDGF) radioligand binding (ligand: [125I] PDGF); format: cell-based; settings: nih3t3; Not Active = under 50% inhibition at 10 µM
[8] = DRUGMATRIX: Phosphodiesterase PDE4 enzyme inhibition (substrate: [3H]cAMP + cAMP); settings: u-937; Not Active = under 50% inhibition at 10 µM
[9] = DRUGMATRIX: Glutamate, NMDA, Agonism radioligand binding (ligand: [3H] CGP-39653); format: cell membranes, Rattus norvegicus, Wistar, Cerebral cortex, Membrane; settings: Not Active = under 50% inhibition at 10 µM

Sequence of Voltage-gated inwardly rectifying potassium channel KCNH2 (Q12809 whole entry): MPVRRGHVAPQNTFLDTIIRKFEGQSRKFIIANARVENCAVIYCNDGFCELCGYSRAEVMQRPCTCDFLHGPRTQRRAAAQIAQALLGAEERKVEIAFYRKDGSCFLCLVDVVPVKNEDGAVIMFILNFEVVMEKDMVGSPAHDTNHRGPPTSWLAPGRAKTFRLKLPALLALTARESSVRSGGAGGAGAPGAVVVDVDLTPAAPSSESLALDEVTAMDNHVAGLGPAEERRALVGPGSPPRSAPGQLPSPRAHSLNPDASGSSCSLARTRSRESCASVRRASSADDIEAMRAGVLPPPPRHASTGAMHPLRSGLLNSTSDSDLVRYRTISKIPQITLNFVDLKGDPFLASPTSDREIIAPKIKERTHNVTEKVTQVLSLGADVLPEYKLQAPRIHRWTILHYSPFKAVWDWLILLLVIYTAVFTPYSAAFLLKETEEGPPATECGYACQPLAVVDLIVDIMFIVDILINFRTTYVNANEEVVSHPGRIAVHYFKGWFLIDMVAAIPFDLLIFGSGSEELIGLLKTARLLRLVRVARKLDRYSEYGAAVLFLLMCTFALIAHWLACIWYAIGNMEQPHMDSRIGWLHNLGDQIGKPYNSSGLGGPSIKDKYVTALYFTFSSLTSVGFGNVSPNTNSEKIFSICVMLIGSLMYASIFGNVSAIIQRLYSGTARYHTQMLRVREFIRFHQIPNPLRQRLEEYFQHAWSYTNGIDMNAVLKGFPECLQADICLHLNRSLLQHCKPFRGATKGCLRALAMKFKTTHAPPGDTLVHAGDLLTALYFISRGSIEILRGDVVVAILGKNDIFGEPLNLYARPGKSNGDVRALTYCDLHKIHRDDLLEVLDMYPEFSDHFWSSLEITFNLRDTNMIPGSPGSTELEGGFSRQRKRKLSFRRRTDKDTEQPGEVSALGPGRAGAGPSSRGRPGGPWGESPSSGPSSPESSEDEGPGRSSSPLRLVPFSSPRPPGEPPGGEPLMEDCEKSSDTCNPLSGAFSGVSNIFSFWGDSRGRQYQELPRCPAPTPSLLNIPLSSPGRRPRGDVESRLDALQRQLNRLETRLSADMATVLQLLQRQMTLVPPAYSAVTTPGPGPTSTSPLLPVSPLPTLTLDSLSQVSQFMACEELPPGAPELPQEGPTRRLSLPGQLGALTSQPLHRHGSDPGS
Sequence of Receptor tyrosine-protein kinase erbB-2 (P04626 whole entry): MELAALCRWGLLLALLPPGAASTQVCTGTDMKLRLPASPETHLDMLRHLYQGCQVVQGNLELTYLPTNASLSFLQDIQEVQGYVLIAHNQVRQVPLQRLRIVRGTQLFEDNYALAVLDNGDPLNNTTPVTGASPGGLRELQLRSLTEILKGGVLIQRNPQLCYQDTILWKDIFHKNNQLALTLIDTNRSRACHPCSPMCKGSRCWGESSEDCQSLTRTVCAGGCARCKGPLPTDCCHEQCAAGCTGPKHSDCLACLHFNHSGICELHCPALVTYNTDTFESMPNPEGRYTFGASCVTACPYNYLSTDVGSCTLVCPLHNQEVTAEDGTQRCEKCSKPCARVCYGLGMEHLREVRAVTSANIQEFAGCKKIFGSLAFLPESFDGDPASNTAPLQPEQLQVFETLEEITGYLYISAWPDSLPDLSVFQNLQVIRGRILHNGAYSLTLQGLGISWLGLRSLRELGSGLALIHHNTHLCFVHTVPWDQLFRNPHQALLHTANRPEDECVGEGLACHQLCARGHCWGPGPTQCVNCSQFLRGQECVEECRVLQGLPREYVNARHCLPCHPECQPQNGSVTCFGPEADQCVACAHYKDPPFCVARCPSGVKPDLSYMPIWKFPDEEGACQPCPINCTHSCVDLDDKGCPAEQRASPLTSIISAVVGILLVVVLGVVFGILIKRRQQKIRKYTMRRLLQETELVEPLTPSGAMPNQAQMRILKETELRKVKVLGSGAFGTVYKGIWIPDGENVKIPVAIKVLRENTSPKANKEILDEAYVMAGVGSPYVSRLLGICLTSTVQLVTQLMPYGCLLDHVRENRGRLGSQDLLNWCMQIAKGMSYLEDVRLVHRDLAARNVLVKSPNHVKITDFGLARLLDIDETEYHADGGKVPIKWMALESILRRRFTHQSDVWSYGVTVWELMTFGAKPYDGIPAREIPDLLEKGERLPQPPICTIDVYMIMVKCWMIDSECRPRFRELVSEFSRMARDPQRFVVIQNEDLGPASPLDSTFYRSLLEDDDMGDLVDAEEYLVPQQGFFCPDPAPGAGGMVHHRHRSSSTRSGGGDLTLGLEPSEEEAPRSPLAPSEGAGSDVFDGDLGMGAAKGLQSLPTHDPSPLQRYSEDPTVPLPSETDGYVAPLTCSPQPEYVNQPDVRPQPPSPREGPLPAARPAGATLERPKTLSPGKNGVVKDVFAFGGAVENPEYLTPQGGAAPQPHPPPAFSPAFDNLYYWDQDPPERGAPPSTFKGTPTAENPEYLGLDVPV

N[C@H](CSC(=S)NCc1ccccc1)C(=O)O
Not Active: IC50 [1] | Ki [1] | IC50 [2] | Ki [2] | IC50 (Adenosine receptor A3) | IC50 [3] | IC50 [4] | Ki [4] | IC50 [5] | Ki [5] | IC50 [6] | IC50 [7] | Ki [7] | IC50 [8] | Ki [8] | IC50 [9] | Ki [9]

Cc1cc(C)nc(NS(=O)(=O)c2ccc(N)cc2)n1 [SULFAMETHAZINE]
Not Active: IC50 [1] | Ki [1] | IC50 [2] | Ki [2] | IC50 (Adenosine receptor A3) | IC50 [3] | IC50 [4] | Ki [4] | IC50 [5] | Ki [5] | IC50 [6] | IC50 [7] | Ki [7] | IC50 [8] | Ki [8] | IC50 [9] | Ki [9]

Cc1cccc(Nc2ccncc2S(=O)(=O)NC(=O)NC(C)C)c1 [TORSEMIDE]
Not Active: IC50 [1] | Ki [1] | IC50 [2] | Ki [2] | IC50 (Adenosine receptor A3) | IC50 [3] | IC50 [4] | Ki [4] | IC50 [5] | Ki [5] | IC50 [6] | IC50 [7] | Ki [7] | IC50 [8] | Ki [8] | IC50 [9] | Ki [9]

O=C1CCC(N2C(=O)c3ccccc3C2=O)C(=O)N1 (stereo not given) [THALIDOMIDE]
Not Active: IC50 [1] | Ki [1] | IC50 [2] | Ki [2] | IC50 (Adenosine receptor A3) | IC50 [3] | IC50 [4] | Ki [4] | IC50 [5] | Ki [5] | IC50 [6] | IC50 [7] | Ki [7] | IC50 [8] | Ki [8] | IC50 [9] | Ki [9]

CC(C)CC(N(C)C)C1(c2ccc(Cl)cc2)CCC1 (stereo not given) [SIBUTRAMINE]
Not Active: IC50 [1] | Ki [1] | IC50 [2] | Ki [2] | IC50 (Adenosine receptor A3) | IC50 [3] | IC50 [4] | Ki [4] | IC50 [5] | Ki [5] | IC50 [6] | IC50 [7] | Ki [7] | IC50 [8] | Ki [8] | IC50 [9] | Ki [9]

[H]/N=C(/N)N[C@H]1[C@H](O)[C@@H](O)[C@H](O[C@@H]2O[C@@H](C)[C@](O)(C=O)[C@H]2O[C@@H]2O[C@@H](CO)[C@H](O)[C@@H](O)[C@@H]2NC)[C@@H](N/C(N)=N\[H])[C@@H]1O [STREPTOMYCIN]
Not Active: IC50 [1] | Ki [1] | IC50 [2] | Ki [2] | IC50 (Adenosine receptor A3) | IC50 [3] | IC50 [4] | Ki [4] | IC50 [5] | Ki [5] | IC50 [6] | IC50 [7] | Ki [7] | IC50 [8] | Ki [8] | IC50 [9] | Ki [9]

CC(C)C[C@H](NC(=O)[C@@H](O)[C@H](N)Cc1ccccc1)C(=O)O [UBENIMEX]
Not Active: IC50 [1] | Ki [1] | IC50 [2] | Ki [2] | IC50 (Adenosine receptor A3) | IC50 [3] | IC50 [4] | Ki [4] | IC50 [5] | Ki [5] | IC50 [6] | IC50 [7] | Ki [7] | IC50 [8] | Ki [8] | IC50 [9] | Ki [9]

CC(C)NCC(O)COc1cccc2ccccc12 (stereo not given) [PROPRANOLOL]
Not Active: IC50 [1] | Ki [1] | IC50 (Adenosine receptor A3) | IC50 [3] | IC50 [6]

Cc1onc(-c2ccccc2)c1-c1ccc(S(N)(=O)=O)cc1 [VALDECOXIB]
Not Active: IC50 [1] | Ki [1] | IC50 [2] | Ki [2] | IC50 (Adenosine receptor A3) | IC50 [3] | IC50 [4] | Ki [4] | IC50 [5] | Ki [5] | IC50 [6] | IC50 [7] | Ki [7] | IC50 [8] | Ki [8] | IC50 [9] | Ki [9]

CC[C@]1(O)C[C@@H]2CN(CCc3c([nH]c4ccccc34)[C@@](C(=O)OC)(c3cc4c(cc3OC)N(C)[C@H]3[C@@](O)(C(=O)OC)[C@H](OC(C)=O)[C@]5(CC)C=CCN6CC[C@]43[C@@H]65)C2)C1 [VINBLASTINE]
Not Active: IC50 [1] | Ki [1] | IC50 [2] | Ki [2] | IC50 (Adenosine receptor A3) | IC50 [3] | IC50 [4] | Ki [4] | IC50 [5] | Ki [5] | IC50 [6] | IC50 [7] | Ki [7] | IC50 [8] | Ki [8] | IC50 [9] | Ki [9]

CC(=O)N1CCN(c2ccc(OCC3COC(Cn4ccnc4)(c4ccc(Cl)cc4Cl)O3)cc2)CC1 (stereo not given) [KETOCONAZOLE]
Not Active: IC50 [2] | Ki [2] | IC50 (Adenosine receptor A3) | IC50 [3] | IC50 [4] | Ki [4] | IC50 [5] | Ki [5] | IC50 [6] | IC50 [7] | Ki [7] | IC50 [8] | Ki [8] | IC50 [9] | Ki [9]

CC/C(=C(/CC)c1ccc(O)cc1)c1ccc(O)cc1 [DIETHYLSTILBESTROL]
Not Active: IC50 [1] | Ki [1] | IC50 [3] | IC50 [6]

C=CCN1CC[C@]23c4c5ccc(O)c4O[C@H]2C(=O)CC[C@@]3(O)[C@H]1C5 [NALOXONE]
Not Active: IC50 [1] | Ki [1] | IC50 (Adenosine receptor A3) | IC50 [3] | IC50 [6]

Clc1ccc2c(c1)C(N1CCNCC1)=Nc1ccccc1O2 [AMOXAPINE]
Not Active: IC50 [1] | Ki [1] | IC50 (Adenosine receptor A3) | IC50 [3] | IC50 [6]

CC(C)(C)c1ccc(C(O)CCCN2CCC(C(O)(c3ccccc3)c3ccccc3)CC2)cc1 (stereo not given) [TERFENADINE]
Not Active: IC50 [2] | Ki [2] | IC50 (Adenosine receptor A3) | IC50 [3] | IC50 [4] | Ki [4] | IC50 [5] | Ki [5] | IC50 [6] | IC50 [7] | Ki [7] | IC50 [8] | Ki [8] | IC50 [9] | Ki [9]

C[C@@H](N)[C@H]1CC[C@H](C(=O)Nc2ccncc2)CC1 [Y-27632]
Not Active: IC50 [2] | Ki [2] | IC50 (Adenosine receptor A3) | IC50 [3] | IC50 [4] | Ki [4] | IC50 [5] | Ki [5] | IC50 [6] | IC50 [7] | Ki [7] | IC50 [8] | Ki [8] | IC50 [9] | Ki [9]

CC(C)c1nc(CN(C)C(=O)N[C@H](C(=O)N[C@@H](Cc2ccccc2)C[C@H](O)[C@H](Cc2ccccc2)NC(=O)OCc2cncs2)C(C)C)cs1 [RITONAVIR]
Not Active: IC50 [2] | Ki [2] | IC50 (Adenosine receptor A3) | IC50 [3] | IC50 [4] | Ki [4] | IC50 [5] | Ki [5] | IC50 [6] | IC50 [7] | Ki [7] | IC50 [8] | Ki [8] | IC50 [9] | Ki [9]

CN1CCC(=C2c3ccccc3C=Cc3ccccc32)CC1 [CYPROHEPTADINE]
Not Active: IC50 (Adenosine receptor A3) | IC50 [3] | IC50 [6]

COc1cc2c(c(OC)c1OC)-c1ccc(OC)c(=O)cc1[C@@H](NC(C)=O)CC2 [COLCHICINE]
Not Active: IC50 [1] | Ki [1] | IC50 (Adenosine receptor A3) | IC50 [3] | IC50 [6]
